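Growth conditions: 96-well plates. Treatment: test compound, 48 hours, 5 concentrations. Analysis: linear interpolation between bracketing concentrations; unreached endpoints set to highest concentration. The concentration for 50% growth inhibition is given as GI50.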 Calls of active or inactive are those of the source. Rule as the data show it: active = GI50 up to about 1.1 µM and inactive = higher.
How the values were obtained:
Experiment in all cases: inhibition of tumour cell growth, NCI panel, 48 h
SNB-75 = system: SNB-75
COLO 205 = system: COLO 205
A549 = system: A549
U-251 = system: U-251
HCT-15 = system: HCT-15
T47D = system: T47D
SNB-19 = system: SNB-19
HL-60 = system: HL-60
UO-31 = system: UO-31
ACHN = system: ACHN
OVCAR-8 = system: OVCAR-8
786-0 = system: 786-0
MDA-MB-435 = system: MDA-MB-435
SW-620 = system: SW-620
M14 = system: M14
TK-10 = system: TK-10
NCI-H23 = system: NCI-H23
PC-3 = system: PC-3
HCC 2998 = system: HCC 2998
NCI-H460 = system: NCI-H460

| Compound | GI50 (SNB-75) | GI50 (COLO 205) | GI50 (A549) | GI50 (U-251) | GI50 (HCT-15) [µM] | GI50 (T47D) | GI50 (SNB-19) | GI50 (HL-60) | GI50 (UO-31) | GI50 (ACHN) | GI50 (OVCAR-8) | GI50 (786-0) | GI50 (MDA-MB-435) | GI50 (SW-620) | GI50 (M14) | GI50 (TK-10) | GI50 (NCI-H23) | GI50 (PC-3) | GI50 (HCC 2998) | GI50 (NCI-H460) |
| --- | --- | --- | --- | --- | --- | --- | --- | --- | --- | --- | --- | --- | --- | --- | --- | --- | --- | --- | --- | --- |
| Cc1ccc([N+](=O)[O-])cc1S(=O)(=O)Nc1ccc(C2=NN(c3ccc([N+](=O)[O-])cc3[N+](=O)[O-])C(c3cccs3)C2)cc1 (stereo not drawn) | 19.5 µM (inactive) | 23.2 µM (inactive) | 19.5 µM (inactive) | 19.5 µM (inactive) | 15.4 | 16.9 µM (inactive) | 27.9 µM (inactive) | 23.1 µM (inactive) | 23.8 µM (inactive) | 22.4 µM (inactive) | 22 µM (inactive) | 17.1 µM (inactive) | 21 µM (inactive) | 35.7 µM (inactive) | 15 µM (inactive) | 30 µM (inactive) | 18.7 µM (inactive) | 25.9 µM (inactive) |  |  |
| NC(=O)C1N=NSC1NC(=O)c1ccc([N+](=O)[O-])cc1 (stereo not drawn) | 67.3 µM (inactive) | 44.5 µM (inactive) | 27 µM (inactive) | 36.6 µM (inactive) | 53.8 | 26.3 µM (inactive) | 50.6 µM (inactive) |  | 40.6 µM (inactive) | 59.4 µM (inactive) | 53.6 µM (inactive) | > 100 µM (inactive) | 46.5 µM (inactive) | 50.6 µM (inactive) | 56.4 µM (inactive) | 54.8 µM (inactive) | 38.7 µM (inactive) | 26.6 µM (inactive) | 37.6 µM (inactive) | 34.4 µM (inactive) |
| Nc1nc(Nc2ccccc2)sc1C(=O)c1c[nH]c2ccccc12 |  | 4.2 µM (inactive) | 7.52 µM (inactive) | 10.7 µM (inactive) | 3.95 | 6.49 µM (inactive) | 3.28 µM (inactive) | 19.1 µM (inactive) | 2.56 µM (inactive) | 15.6 µM (inactive) |  | 5.52 µM (inactive) | 11.2 µM (inactive) | 11.1 µM (inactive) | 8 µM (inactive) | 3.09 µM (inactive) | 17.5 µM (inactive) | 11.6 µM (inactive) |  | 4.23 µM (inactive) |
| CCc1nc2cc(F)ccc2[nH]c1=O | 82.8 µM (inactive) | > 100 µM (inactive) | > 100 µM (inactive) | > 100 µM (inactive) | > 100 |  | > 100 µM (inactive) | > 100 µM (inactive) | > 100 µM (inactive) | > 100 µM (inactive) | > 100 µM (inactive) | > 100 µM (inactive) | > 100 µM (inactive) | > 100 µM (inactive) | > 100 µM (inactive) | > 100 µM (inactive) | > 100 µM (inactive) | > 100 µM (inactive) | > 100 µM (inactive) | > 100 µM (inactive) |
| COc1cc2cc(c1Cl)N(C)C(=O)C[C@H](OC(=O)[C@H](C)N(C)C(C)=O)[C@]1(C)O[C@H]1[C@H](C)[C@@H]1C[C@@](O)(NC(=O)O1)[C@H](OC)/C=C/C=C(/C)C2 | 0.0174 µM (active) | 0.02 µM (active) | 0.0255 µM (active) | 0.015 µM (active) | 0.0292 | > 100 µM (inactive) | 0.0149 µM (active) | 0.0125 µM (active) | 0.0944 µM (active) | 0.0526 µM (active) | 0.0218 µM (active) | 0.025 µM (active) |  | 0.0165 µM (active) | 0.0509 µM (active) | 0.238 µM (active) | 0.0201 µM (active) | 0.000505 µM (active) | 0.0175 µM (active) | 0.0157 µM (active) |
| Cc1[nH]n(C(=N)N)c(=O)c1CCO | > 100 µM (inactive) | > 100 µM (inactive) | > 100 µM (inactive) | > 100 µM (inactive) | > 100 |  | > 100 µM (inactive) | > 100 µM (inactive) | > 100 µM (inactive) | > 100 µM (inactive) | 1.68 µM (inactive) | 1.67 µM (inactive) | > 100 µM (inactive) | > 100 µM (inactive) | > 100 µM (inactive) | > 100 µM (inactive) | > 100 µM (inactive) | > 100 µM (inactive) | > 100 µM (inactive) | > 100 µM (inactive) |
| COC(=O)c1ccc(/C=C(\c2ccc([N+](=O)[O-])o2)S(=O)(=O)c2ccc(NC(C)=O)cc2)o1 | 19.3 µM (inactive) | 2.9 µM (inactive) | 16.7 µM (inactive) | 14.1 µM (inactive) | 2.45 | 18.4 µM (inactive) | 16.9 µM (inactive) | 3.03 µM (inactive) | 4.49 µM (inactive) | 3.09 µM (inactive) | 3.42 µM (inactive) | 3.43 µM (inactive) | 3.82 µM (inactive) | 3.63 µM (inactive) | 4.14 µM (inactive) | 4.97 µM (inactive) | 13.9 µM (inactive) | 14.8 µM (inactive) |  | 18.5 µM (inactive) |
| CC(C)[Si](OC12CCC(CC1O)CC2C(=O)O)(C(C)C)C(C)C (stereo not drawn) | 6.1 µM (inactive) | 21.7 µM (inactive) | 14.5 µM (inactive) | 14.6 µM (inactive) | 12.4 | 13.9 µM (inactive) | 15.6 µM (inactive) | 0.459 µM (active) | 13.2 µM (inactive) | 15.7 µM (inactive) | 16.1 µM (inactive) | 11 µM (inactive) | 14.5 µM (inactive) | 14.9 µM (inactive) | 15.8 µM (inactive) | 3.88 µM (inactive) | 15.5 µM (inactive) | 12.5 µM (inactive) |  | 7.76 µM (inactive) |
| CCC(Cc1cnc2nc(N)nc(N)c2n1)c1ccc(C(=O)NC(CCC(=O)O)C(=O)O)cc1 (stereo not drawn) | 0.329 µM (active) | 3.24 µM (inactive) | 0.000507 µM (active) |  | 0.000632 | 1.78 µM (inactive) | 0.00419 µM (active) | < 0.0001 µM (active) | 0.000382 µM (active) | 0.000456 µM (active) | 0.000624 µM (active) | 0.000146 µM (active) | 0.000736 µM (active) | 0.000176 µM (active) | 0.000899 µM (active) | > 100 µM (inactive) | 0.000621 µM (active) | < 0.0001 µM (active) |  | 0.000315 µM (active) |
| Oc1cc(O)c2c(c1)OC(c1ccc(O)c(O)c1)C(O)C2c1c(O)cc(O)c2c1OC(c1ccc(O)c(O)c1)C(O)C2 (stereo not drawn) | > 100 µM (inactive) | > 100 µM (inactive) | > 100 µM (inactive) | > 100 µM (inactive) | > 100 | > 100 µM (inactive) | > 100 µM (inactive) | 0.0323 µM (active) | > 100 µM (inactive) | > 100 µM (inactive) | > 100 µM (inactive) | > 100 µM (inactive) | > 100 µM (inactive) | 45.4 µM (inactive) | > 100 µM (inactive) | > 100 µM (inactive) | > 100 µM (inactive) | > 100 µM (inactive) |  | 85.1 µM (inactive) |
| COc1ccc(N(C(=O)OC(C)(C)C)[C@@H]2C(C)=C[C@H]([S@@+]([O-])c3ccc(C)cc3)[C@@H]3C(=O)N(C)C(=O)[C@@H]32)cc1 | 4.94 µM (inactive) | 17 µM (inactive) | 19.3 µM (inactive) | 14 µM (inactive) | 27.5 | 33.6 µM (inactive) | 17.5 µM (inactive) | 22 µM (inactive) | 15.1 µM (inactive) | 20.5 µM (inactive) | 20.5 µM (inactive) | 18.1 µM (inactive) | 15 µM (inactive) | 20.9 µM (inactive) | 32.2 µM (inactive) | 17.1 µM (inactive) | 20.9 µM (inactive) | 23.9 µM (inactive) |  | 25.2 µM (inactive) |
| COc1ccc(CNc2nc3ccccc3nc2-c2cccs2)cc1 | > 100 µM (inactive) | 38.1 µM (inactive) | 33.1 µM (inactive) | 28.8 µM (inactive) | 35.4 | 22.9 µM (inactive) |  | 61.7 µM (inactive) | 15.4 µM (inactive) | 57.5 µM (inactive) | 28.9 µM (inactive) | 43.9 µM (inactive) | 27.4 µM (inactive) | 51.9 µM (inactive) |  | 94.2 µM (inactive) | 62.4 µM (inactive) |  | 45.6 µM (inactive) | 24.2 µM (inactive) |
| NC(C(=O)O)C(O)c1c[nH]cn1 (stereo not drawn) | > 100 µM (inactive) | > 100 µM (inactive) | > 100 µM (inactive) | > 100 µM (inactive) | > 100 | > 100 µM (inactive) | > 100 µM (inactive) | > 100 µM (inactive) |  | > 100 µM (inactive) | > 100 µM (inactive) | > 100 µM (inactive) | > 100 µM (inactive) | > 100 µM (inactive) | > 100 µM (inactive) | > 100 µM (inactive) | > 100 µM (inactive) | > 100 µM (inactive) |  | > 100 µM (inactive) |
| CC(=O)/N=C1\NC(=O)/C(=C/c2ccc(Cl)cc2Cl)N1C | 58.1 µM (inactive) | > 100 µM (inactive) | > 100 µM (inactive) | 19.5 µM (inactive) | 27.9 |  | 47.6 µM (inactive) | 0.277 µM (active) | > 100 µM (inactive) | > 100 µM (inactive) | 31.6 µM (inactive) | 56.4 µM (inactive) | 97.5 µM (inactive) | 80.9 µM (inactive) | 95.3 µM (inactive) | > 100 µM (inactive) | > 100 µM (inactive) | > 100 µM (inactive) | > 100 µM (inactive) | 35.2 µM (inactive) |
| O=C1CSCc2sccc21 | 52.8 µM (inactive) | > 100 µM (inactive) | > 100 µM (inactive) | > 100 µM (inactive) | > 100 | > 100 µM (inactive) | > 100 µM (inactive) | > 100 µM (inactive) | > 100 µM (inactive) | > 100 µM (inactive) | > 100 µM (inactive) | > 100 µM (inactive) |  | > 100 µM (inactive) | > 100 µM (inactive) | > 100 µM (inactive) | > 100 µM (inactive) | > 100 µM (inactive) | 15 µM (inactive) | > 100 µM (inactive) |

From ChEMBL document CHEMBL1201862, “PubChem BioAssay data set” (2004)
